Laboratory results from ChEMBL document CHEMBL1201862, “PubChem BioAssay data set” (2004).
Calls of active or inactive are those of the source.

Experiments:
[1] = reduced cellular PGC1a acetyl-lysine signal – cell-based, cherry-picked samples, dose response (AID 720514); assay type: functional;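 also: potency may reflect raised or lowered acetylation signal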
[2] = cells; assay type: functional, cell-based; conditions: HEK-CNG
[3] = molecular target: T1, Galanin receptor type 3 (Homo sapiens, UniProt O60755); test: Fluorescence-based cell-based primary high throughput dose response assay to identify antagonists of the Galanin Receptor 3 (GalR3).; assay type: functional
T1 sequence (O60755 whole entry): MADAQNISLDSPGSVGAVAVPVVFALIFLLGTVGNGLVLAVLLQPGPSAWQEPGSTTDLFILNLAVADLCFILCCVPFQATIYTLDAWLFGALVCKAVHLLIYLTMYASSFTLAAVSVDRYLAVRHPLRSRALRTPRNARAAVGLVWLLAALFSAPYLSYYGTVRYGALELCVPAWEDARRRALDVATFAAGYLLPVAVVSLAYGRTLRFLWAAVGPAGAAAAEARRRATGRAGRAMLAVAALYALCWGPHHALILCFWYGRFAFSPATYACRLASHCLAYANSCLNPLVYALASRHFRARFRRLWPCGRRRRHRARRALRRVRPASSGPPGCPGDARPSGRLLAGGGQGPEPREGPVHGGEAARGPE

[4] = molecular target: T2, Methionyl-tRNA synthetase, putative (Trypanosoma brucei brucei, UniProt Q38C91); assay type: functional, Trypanosoma brucei brucei strain 927/4 GUTat10.1
T2 sequence (Q38C91 whole entry): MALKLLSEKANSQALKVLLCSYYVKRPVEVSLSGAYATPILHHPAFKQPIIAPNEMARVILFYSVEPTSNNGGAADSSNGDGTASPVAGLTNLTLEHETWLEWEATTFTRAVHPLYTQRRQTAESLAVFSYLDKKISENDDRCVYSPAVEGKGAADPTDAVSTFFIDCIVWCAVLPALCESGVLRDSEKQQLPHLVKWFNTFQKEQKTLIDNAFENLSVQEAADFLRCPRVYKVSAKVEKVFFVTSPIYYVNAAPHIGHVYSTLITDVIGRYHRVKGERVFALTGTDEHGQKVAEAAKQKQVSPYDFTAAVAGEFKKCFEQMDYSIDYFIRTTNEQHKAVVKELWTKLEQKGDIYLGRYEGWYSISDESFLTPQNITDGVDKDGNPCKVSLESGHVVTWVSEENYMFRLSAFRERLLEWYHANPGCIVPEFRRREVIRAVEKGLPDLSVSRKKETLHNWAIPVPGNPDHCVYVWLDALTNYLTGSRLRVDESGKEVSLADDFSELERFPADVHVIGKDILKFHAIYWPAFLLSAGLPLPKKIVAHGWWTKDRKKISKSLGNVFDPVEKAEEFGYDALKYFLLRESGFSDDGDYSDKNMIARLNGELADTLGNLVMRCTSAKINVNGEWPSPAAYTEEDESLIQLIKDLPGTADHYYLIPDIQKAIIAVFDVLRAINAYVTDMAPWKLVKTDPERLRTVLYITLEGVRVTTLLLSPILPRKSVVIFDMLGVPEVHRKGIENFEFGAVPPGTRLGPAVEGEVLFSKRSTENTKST

[5] = Counterscreen for inhibitors of Trypanosoma brucei methionyl tRNA synthetase (MetRS): Luminescence-based cell-based high throughput dose response assay to identify compounds that are cytotoxic to Jurkat human T lymphocyte cells.; assay type: functional
[6] = molecular target: T2, Methionyl-tRNA synthetase, putative; assay type: functional, Trypanosoma brucei brucei strain 927/4 GUTat10.1; remark: listed apart in the source
[7] = molecular target: T3, Rac GTPase-activating protein 1 (Homo sapiens, UniProt Q9H0H5); test: blockers of MgcRacGAP-driven Rac1 GTP hydrolysis – biochemical, ADP Hunter fluorescence, primary and confirmatory, confirmation (AID 624330); assay type: functional
T3 sequence (Q9H0H5 whole entry): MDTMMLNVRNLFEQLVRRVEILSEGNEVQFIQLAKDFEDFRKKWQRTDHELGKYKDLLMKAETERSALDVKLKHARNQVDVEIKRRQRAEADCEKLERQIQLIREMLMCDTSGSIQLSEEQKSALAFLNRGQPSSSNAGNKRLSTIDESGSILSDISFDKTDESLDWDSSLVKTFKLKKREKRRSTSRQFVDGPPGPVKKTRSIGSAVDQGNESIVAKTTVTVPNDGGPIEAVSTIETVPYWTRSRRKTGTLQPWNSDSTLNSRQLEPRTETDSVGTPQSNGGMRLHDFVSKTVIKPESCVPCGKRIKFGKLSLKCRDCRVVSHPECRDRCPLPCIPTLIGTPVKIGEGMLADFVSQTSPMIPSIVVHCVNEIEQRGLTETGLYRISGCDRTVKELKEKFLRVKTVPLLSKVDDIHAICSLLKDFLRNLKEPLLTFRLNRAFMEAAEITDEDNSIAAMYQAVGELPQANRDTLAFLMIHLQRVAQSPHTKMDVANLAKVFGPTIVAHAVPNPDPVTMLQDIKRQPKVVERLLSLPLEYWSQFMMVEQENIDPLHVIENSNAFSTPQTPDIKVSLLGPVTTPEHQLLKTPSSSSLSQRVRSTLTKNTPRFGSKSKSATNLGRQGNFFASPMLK

[8] = viability loss in HeLa cells – cytotoxicity control for MgcRacGAP inhibitor project, dose response (AID 624300); assay type: functional
[9] = molecular target: FAD-linked sulfhydryl oxidase ALR (Homo sapiens, UniProt P55789); test: ALR-catalysed DTT oxidation blockers – biochemical, H2O2 detection, luminescence, cherry-pick, dose response (AID 493248)
Chain of FAD-linked sulfhydryl oxidase ALR (P55789 whole entry): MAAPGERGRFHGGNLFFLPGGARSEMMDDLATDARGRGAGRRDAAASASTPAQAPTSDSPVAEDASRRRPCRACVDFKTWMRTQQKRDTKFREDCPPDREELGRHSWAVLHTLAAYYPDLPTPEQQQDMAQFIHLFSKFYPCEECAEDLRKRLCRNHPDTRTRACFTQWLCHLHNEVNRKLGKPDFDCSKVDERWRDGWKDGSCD

[10] = molecular target: Kallikrein-7 (Homo sapiens, UniProt P49862); test: Fluorescence Intensity-based biochemical primary high throughput dose response assay to identify activators of kallikrein-7 (K7) zymogen.
Chain of Kallikrein-7 (P49862 whole entry): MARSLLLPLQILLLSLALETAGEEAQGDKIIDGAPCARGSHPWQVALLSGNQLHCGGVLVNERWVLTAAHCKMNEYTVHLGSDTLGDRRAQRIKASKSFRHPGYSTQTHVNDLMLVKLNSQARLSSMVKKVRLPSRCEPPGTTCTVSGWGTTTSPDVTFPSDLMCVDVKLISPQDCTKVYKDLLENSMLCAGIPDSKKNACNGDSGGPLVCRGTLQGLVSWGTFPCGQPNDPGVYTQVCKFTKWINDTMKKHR

[11] = molecular target: T4, Interleukin-8 (Homo sapiens, UniProt P10145); test: Dose Response confirmation of uHTS small molecule hits for cystic fibrosis induced NFkb Inhibitors in a TNFa-induced IL8 counterscreen.; assay type: functional; conditions: read-out: IC50_Mean
T4 sequence (P10145 whole entry): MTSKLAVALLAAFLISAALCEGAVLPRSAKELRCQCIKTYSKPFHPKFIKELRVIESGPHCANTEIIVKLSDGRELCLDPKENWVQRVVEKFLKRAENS

[12] = system: HEK293; test: EBV LMP1 TES2 canonical NF-kB signalling blockers – cell-based, HEK293, luciferase, cherry-pick, dose response (AID 588343); assay type: functional, Homo sapiens; conditions: Homo sapiens, HEK293
[13] = molecular target: Cytochrome P450 2D6 (Homo sapiens, UniProt P10635);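 also: CYP2D6 member of a cytochrome P450 panel assay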
Chain of Cytochrome P450 2D6 (P10635 whole entry): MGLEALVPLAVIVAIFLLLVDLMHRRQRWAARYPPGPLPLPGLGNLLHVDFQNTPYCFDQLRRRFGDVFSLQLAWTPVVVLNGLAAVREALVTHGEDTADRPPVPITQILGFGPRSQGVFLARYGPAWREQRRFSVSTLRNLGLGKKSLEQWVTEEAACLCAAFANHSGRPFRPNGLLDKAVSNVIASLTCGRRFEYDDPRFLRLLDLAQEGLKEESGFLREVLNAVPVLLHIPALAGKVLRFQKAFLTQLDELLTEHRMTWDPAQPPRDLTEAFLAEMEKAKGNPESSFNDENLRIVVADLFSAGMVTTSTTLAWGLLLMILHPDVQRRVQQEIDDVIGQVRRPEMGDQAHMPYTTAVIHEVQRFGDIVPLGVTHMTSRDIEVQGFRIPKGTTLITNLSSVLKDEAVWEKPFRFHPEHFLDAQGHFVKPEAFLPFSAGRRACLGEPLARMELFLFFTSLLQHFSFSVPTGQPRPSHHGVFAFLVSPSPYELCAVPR

[14] = molecular target: T4, Interleukin-8; test: Dose Response confirmation of uHTS small molecule hits for cystic fibrosis induced NFkb Inhibitors in a PAF-induced IL8 counterscreen.; assay type: functional; conditions: read-out: IC50_Mean
[15] = OV-90 cell viability loss – plate reader, dry powder, SA8, PAX8 inhibitor project, dose response (AID 743149); assay type: functional, cell-based
[16] = COV434 cell viability loss – plate reader, dry powder, SA7, cytotoxicity control for PAX8 inhibitor project, dose response (AID 743145); assay type: functional, cell-based
[17] = PAX8-dependent cell viability loss – plate reader, dry powder, dose response (AID 743049); assay type: functional, cell-based
[18] = PAX5 cellular inhibition readout – cell-based, plate reader, dry powder samples, selectivity assay for PAX8 inhibitor project, dose response (AID 743047); assay type: functional;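 also: HEK293 cells carrying a Pax5 driven CD19 promoter luciferase reporter; potency of inhibitors that lower reporter luminescence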
[19] = molecular target: Paired box protein Pax-8 (Homo sapiens, UniProt Q06710); test: PAX8 transcriptional activity inhibition in RMG-I – RMG-I cells, luciferase, cherry-pick, dose response (AID 687027); assay type: functional, cell-based;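 also: luciferase reporter driven by Pax8 target thyroperoxidase promoter measured by SteadyGlo luminescence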
Chain of Paired box protein Pax-8 (Q06710 whole entry): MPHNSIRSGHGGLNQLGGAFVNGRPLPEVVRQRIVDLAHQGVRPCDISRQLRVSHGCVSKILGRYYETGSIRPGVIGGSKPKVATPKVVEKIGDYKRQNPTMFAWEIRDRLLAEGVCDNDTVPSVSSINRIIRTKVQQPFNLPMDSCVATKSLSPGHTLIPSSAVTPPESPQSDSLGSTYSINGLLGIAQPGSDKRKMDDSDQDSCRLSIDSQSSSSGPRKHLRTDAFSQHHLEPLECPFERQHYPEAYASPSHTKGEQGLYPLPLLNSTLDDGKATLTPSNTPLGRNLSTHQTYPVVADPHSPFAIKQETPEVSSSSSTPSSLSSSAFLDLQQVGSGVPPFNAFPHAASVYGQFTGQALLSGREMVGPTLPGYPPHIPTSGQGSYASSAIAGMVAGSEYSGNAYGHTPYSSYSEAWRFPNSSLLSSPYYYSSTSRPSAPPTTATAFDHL

[20] = inhibitors acting on PAX2 in cells – cell-based, plate reader, dry powder samples, selectivity assay for PAX8 inhibitor project, dose response (AID 743048); assay type: functional;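 also: HEK293 cells carrying a WT1 promoter luciferase reporter driven by expressed Pax2; potency is for inhibition of Pax2 driven reporter signal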
[21] = OVCAR-3 cell viability loss – plate reader, dry powder samples, PAX8 inhibitor project, dose response (AID 743044); assay type: functional, cell-based

With `CC(C)CC#Cc1ccc([C@H]2[C@H](CO)N3C(=O)CN(C(=O)Nc4cc(F)ccc4F)C[C@@H]23)cc1` the AC50 [1] was 27.6 µM (active).
With `CCCCC[C@H](O)/C=C/[C@H]1CCC(=O)[C@@H]1CCCCCCC(=O)N1CCCCC1CO` (stereo not given in full) the EC50 [2] was > 29.9 µM (inactive) and the IC50 [3] was 3.54 µM (active).
For `CC(=O)NS(=O)(=O)c1ccc(NC(=O)/C=C/c2cn(-c3ccccc3)nc2-c2ccccc2)cc1`, the IC50 [4] was 12 µM (inactive), the IC50 [5] was 83.3 µM (inactive) and the IC50 [6] was 49.8 µM (inactive).
With `COc1cc(/C=N/Nc2nc3ccccc3[nH]2)ccc1O` the IC50 [7] was 14 µM (active), the IC50 [4] was 102 µM (inactive) and the IC50 [5] was 83.3 µM (inactive). The CC50 [8] was 100 µM (active), the AC50 [9] was 1.16 µM (active) and the IC50 [6] was 23.7 µM (inactive).
With `CC(C)N(c1ccccc1)c1ccc(NC(S)=NCCN(C)C)cc1` the CC50 [8] was 100 µM (active).
For `CCOC(=O)c1cnc2c(C(=O)OC)cccc2c1NCc1ccco1`, the EC50 [10] was > 69.5 µM (inactive).
For `c1cncc(CNc2ncnc3ccc(-c4ccoc4)cc23)c1`, the IC50 [11] was > 79 µM (inactive), the AC50 [12] was 5.33 µM (active) and the AC50 [13] was 25.1 µM (inconclusive). For the same compound, the IC50 [14] was 6.44 µM (active).
With `Cc1ccc(S(=O)(=O)Nc2ccc3c(c2)nc(CCN2CCCC2)n3C)cc1` the AC50 [15] was 45.2 µM (active), the AC50 [16] was 26.4 µM (active) and the AC50 [17] was 50.6 µM (active). The AC50 [18] was > 100 µM (inactive), the AC50 [19] was 5.89 µM (active) and the AC50 [20] was > 100 µM (inactive). The AC50 [21] was 34.1 µM (active).
